Data on 22 molecules can be found in patent publication US20240150277A1, “Covalent PPARG inverse-agonists” (Bayer Aktiengesellschaft, priority 2022, published 2024).

Where two headings read alike, the source gives them in different places.

One assay has as its system UMUC9 cells. As to the kind of experiment: Proliferation UMUC9 H2B-GFP assay (Incucyte). It is filed as cell-based. As to conditions: 7 days of treatment; for Emax: UM-UC-9, 168 h, % efficacy (span); for IC50: UM-UC-9, relative IC50, Day 1 subtracted, percentage of DMSO control. As to the method:
Proliferation UMUC9 H2B-GFP assay
Instrument: Incucyte® (Sartorius).
Description: Incucyte® Proliferation Assay measures cell proliferation based on nuclei count using live-cell time-lapse imaging. […] Measurements were performed on the day of treatment (Day 1 reading) and after 7 days of treatment (Day 8 reading). Green fluorescence in cell nuclei is measured using the instrument (Image Channels: Phase, Green; Acquisition time: 300 ms; Magnification: 4×).
Analysis: Selected metrics for analysis: Phase Object Confluence (Percent), Nuclei Count (1/Well) and Total Nuclei Area (μm^2/Well). Day 1 measurements were subtracted from each Day 8 measurement and expressed as percentage of the vehicle (DMSO) control. Percentage proliferation values were then plotted against compound concentration using GraphPad PRISM software. The Sigmoidal 4PL X is log (concentration) model of […] was used. Relative IC50 values and % efficacy (span) is reported below.

The target in the next assay is T1, PPARG receptors (Homo sapiens, UniProt P37231).
T1 construct: leading to PPARG dependent expression of the NanoLuc@ Luciferase; endogenous in cells
T1 sequence (P37231 1-505): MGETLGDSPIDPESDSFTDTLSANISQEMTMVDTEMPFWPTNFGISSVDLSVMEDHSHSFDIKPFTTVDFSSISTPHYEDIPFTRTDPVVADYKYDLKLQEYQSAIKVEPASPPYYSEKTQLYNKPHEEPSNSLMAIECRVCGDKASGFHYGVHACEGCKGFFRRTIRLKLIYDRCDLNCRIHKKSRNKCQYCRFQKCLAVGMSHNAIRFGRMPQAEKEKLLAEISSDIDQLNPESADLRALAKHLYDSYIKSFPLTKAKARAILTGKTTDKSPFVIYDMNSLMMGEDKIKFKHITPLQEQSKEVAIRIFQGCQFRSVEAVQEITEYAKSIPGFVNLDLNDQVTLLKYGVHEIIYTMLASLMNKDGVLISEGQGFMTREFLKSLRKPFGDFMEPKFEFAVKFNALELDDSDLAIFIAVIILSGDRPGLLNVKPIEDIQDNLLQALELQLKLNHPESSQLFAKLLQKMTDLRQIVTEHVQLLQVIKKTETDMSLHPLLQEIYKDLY
The assay can be described thus: RT-112-FABP4-NLuc Reporter Gene Assay (inverse agonism). The note with it: incubated over night; for IC50: 50 μM to 0.03 nM; for Emax: RT112/84, read-out: PPARG_RT-112_FABP4_NLuc_inverse agonist Efficacy - [%], bladder cancer cell line RT-112/84, NanoLuc in FABP4 3′ UTR. It is filed as cell-based. As to the method:
Inverse agonists reduce the basal expression of the Luciferase resulting in a decrease of the Luciferase signal after addition of substrate and cell lysis. To exclude toxic effects of the compounds a parallel measurement of cell viability was performed based on the CellTiter Glo Assay (Promega).
On the next day 10 μl of test compounds dissolved in DMEM/F12 2% FBS and 0,01% BSA are placed in the wells of the microtiter plates. Final concentrations ranged from 50 μM to 0.03 nM. […] On the next day the NanoLuc Luciferase activity was measured by addition of 40 μl of NanoLuc substrate and lysis buffer (Promega, Madison, Wisconsin) diluted in 2 mM Ca-tyrode buffer (20 mM HEPES, 130 mM NaCl, 5 mM KCl, 5 mM NaHCO3, 2 mM MgCl2, pH 7,4). The resulting light signal was measured for 60 seconds in a luminometer. Every sample was tested in quadruples and mean values were used to calculate the IC50 values and efficacies of the compounds.
(In general: Reporter assays use an easily measured gene product as a stand-in for the process of interest.)

[1] abbreviates: PPARG_RT-112_FABP4_NLuc_inverse agonist IC50 - [mol/l], bladder cancer cell line RT-112/84, NanoLuc in FABP4 3′ UTR.
Setting [2] is: read-out: PPARG_RT-112_FABP4_NLuc_inverse agonist IC50 - [mol/l], bladder cancer cell line RT-112/84, NanoLuc in FABP4 3′ UTR.

Regarding `Cc1cc(N2CCCC(O)C2)ccc1NC(=O)c1cc(C(=O)NCc2ccc(F)c(F)c2)c(F)cc1Cl` (centres unmarked) [Example 11, 4-chloro-N^1-[(3,4-difluorophenyl)methyl]-6-fluoro-N^3-{4-[3-hydroxypiperidin-1-yl]-2-methylphenyl}benzene-1,3-dicarboxamide], the results for the Emax in the assay on UMUC9 cells and on PPARG receptors were 104% and 103%, respectively. In addition, the IC50 stood at 8.23 nM with UMUC9 cells and 4.2 nM at PPARG receptors (setting [1]).
The matching figures for `Cc1cc(OC(F)F)ccc1NC(=O)c1cc(C(=O)NCc2ccccc2O)c(F)cc1Cl` [Example 1, 4-chloro-N^3-[4-(difluoromethoxy)-2-methylphenyl]-6-fluoro-N′-[(2-hydroxyphenyl)methyl]benzene-1,3-dicarboxamide]: 51.4%, 83.5%, 2.89 nM and 3.8 nM.
Turning to `Cc1cc(OC(F)F)ccc1NC(=O)c1cc(C(=O)NC(CO)c2ccc(F)cc2)c(F)cc1Cl` (centres unmarked) [Example 2, 4-chloro-N^3-[4-(difluoromethoxy)-2-methylphenyl]-6-fluoro-N^1-[1-(4-fluorophenyl)-2-hydroxyethyl]benzene-1,3-dicarboxamide], the Emax in the assay with UMUC9 cells was 72.7%; on PPARG receptors, 110%. Moreover, the IC50 in the assay on UMUC9 cells is 204 nM; on PPARG receptors (setting [1]) it was 33 nM.
The matching figures for `C#Cc1cc(F)c(C(=O)NCc2ccc(F)c(F)c2)cc1C(=O)Nc1ccccc1` [Example 40, N^1-(3,4-difluorobenzyl)-4-ethynyl-6-fluoro-N^3-phenylisophthalamide]: 72.1%, 114%, 391 nM and 1600 nM.
The matching figures for `O=C(NCc1ccc(F)cc1)c1cc(C(=O)Nc2ccc(Oc3ccccc3)cn2)c(Cl)cc1F` [Example 21, 4-chloro-6-fluoro-N^1-[(4-fluorophenyl)methyl]-N^3-(5-phenoxypyridin-2-yl)benzene-1,3-dicarboxamide]: 56.1%, 142%, 10.6 nM and 1.48 nM.
Regarding `O=C(NCc1ccc(F)c(F)c1)c1cc(C(=O)Nc2ccccn2)c(Cl)cc1F` [Example 34, 4-chloro-N^1-(3,4-difluorobenzyl)-6-fluoro-N^3-(pyridin-2-yl)isophthalamide], the Emax with UMUC9 cells amounted to 100%; at PPARG receptors, 95%. On PPARG receptors (setting [2]), the IC50 is 54.5 nM.
Regarding `Cc1ccc(NC(=O)c2cc(C(=O)NCc3ccccc3)c(F)cc2Cl)cc1` [Example 24, N^1-benzyl-4-chloro-6-fluoro-N^3-(4-methylphenyl)benzene-1,3-dicarboxamide], the Emax with UMUC9 cells was found to be 24.4%; on PPARG receptors, 92.5%. Besides, the IC50 was 25.1 nM with UMUC9 cells and 7.65 nM at PPARG receptors (setting [1]).
As to `Cc1cccc(-c2nc3cc(NC(=O)c4cc(C(=O)NCc5ccc(F)c(F)c5)c(F)cc4Cl)ccc3o2)c1` [Example 39, 4-chloro-N^1-(3,4-difluorobenzyl)-6-fluoro-N^3-(2-(m-tolyl)benzo[d]oxazol-5-yl)isophthalamide], the values for the Emax with UMUC9 cells and at PPARG receptors were 88.7% and 95.5%, respectively. The IC50 with UMUC9 cells amounted to 34.2 nM; on PPARG receptors (setting [2]), 6.55 nM.
With `Cc1ccccc1CNC(=O)c1ccc(Cl)c(C(=O)Nc2ccccc2)c1` [Example 47, 4-chloro-N^1-[(2-methylphenyl)methyl]-N^3-phenylbenzene-1,3-dicarboxamide], the Emax in the assay with UMUC9 cells was found to be 66.9%; at PPARG receptors it was 92%. Besides, the IC50 with UMUC9 cells turned out to be 2240 nM; at PPARG receptors (setting [1]), 895 nM.
The matching figures for `Cc1cc(OC(F)F)ccc1NC(=O)c1cc(C(=O)NCc2ccc(F)c(F)c2)cc(Cl)c1Cl` [Example 7, 4,5-dichloro-N^3-[4-(difluoromethoxy)-2-methylphenyl]-N^1-[(3,4-difluorophenyl)methyl]benzene-1,3-dicarboxamide]: 64.9%, 102%, 9.09 nM and 1.4 nM.
As to `Cc1ccccc1NC(=O)c1cc(C(=O)NCc2ccccc2)cc(Cl)c1Br` [Example 50, N^1-benzyl-4-bromo-5-chloro-N^3-(2-methylphenyl)benzene-1,3-dicarboxamide], the Emax amounted to 50.8% with UMUC9 cells and 108% on PPARG receptors. For the same molecule, the IC50 is 5.06 nM with UMUC9 cells and 0.45 nM at PPARG receptors (setting [1]).
As to `O=C(NCc1ccccc1)c1cc(Cl)c(Cl)c(C(=O)Nc2ccc(Cl)cn2)c1F` [Example 32, N^1-benzyl-4,5-dichloro-N^3-(5-chloropyridin-2-yl)-2-fluorobenzene-1,3-dicarboxamide], the IC50 at PPARG receptors (setting [1]) was found to be 1.3 nM. At PPARG receptors, the Emax turned out to be 74%.
Turning to `COc1ccccc1CNC(=O)c1cc(Cl)c(Cl)c(C(=O)Nc2ccc(N3CCOCC3)cn2)c1` [Example 38, 4,5-dichloro-N^1-(2-methoxybenzyl)-N^3-(5-morpholinopyridin-2-yl)isophthalamide], the Emax with UMUC9 cells is 49.5%; on PPARG receptors, 98.5%. Also, the IC50 came to 4.23 nM with UMUC9 cells and 0.73 nM at PPARG receptors (setting [1]).
In turn, `O=C(NCc1ccccc1)c1ccc(Cl)c(C(=O)Nc2ccccc2)c1` [Example 43, N^1-benzyl-4-chloro-N^3-phenylbenzene-1,3-dicarboxamide] had an Emax in the assay on UMUC9 cells of 27.1%.
For the molecule `O=C(NCc1ccc(F)cc1)c1ccc(Cl)c(C(=O)Nc2ccccc2)c1` [Example 45, 4-chloro-N^1-[(4-fluorophenyl)methyl]-N^3-phenylbenzene-1,3-dicarboxamide], the Emax in the assay on UMUC9 cells came out at 57.6%.
In the assay on UMUC9 cells, `COc1ccccc1CNC(=O)c1ccc(Cl)c(C(=O)Nc2ccccc2)c1` [Example 46, 4-chloro-N^1-[(2-methoxyphenyl)methyl]-N^3-phenylbenzene-1,3-dicarboxamide] had an Emax of 70.6% and an IC50 of 2630 nM.
Consider `Cc1cc(C(F)(F)F)ccc1NC(=O)c1cc(C(=O)NC(CO)c2ccccc2)c(F)cc1Cl` (single isomer, unassigned) [Example 29, 4-chloro-6-fluoro-N^1-[(1R*)-2-hydroxy-1-phenylethyl]-N^3-[2-methyl-4-(trifluoromethyl)phenyl]benzene-1,3-dicarboxamide], for which, at PPARG receptors (setting [1]), the IC50 was 130 nM. Also, the “PPARG_RT-112_FABP4_NLuc_inverse agonist Efficacy - [%]” value on PPARG receptors (bladder cancer cell line RT-112/84, NanoLuc in FABP4 3′ UTR) was 81.00%.
`O=C(NCc1ccccc1)c1ccc(Br)c(C(=O)Nc2ccccc2)c1` [Example 48, N^1-benzyl-4-bromo-N^3-phenylbenzene-1,3-dicarboxamide] had an Emax in the assay on UMUC9 cells of 43.1%.
Still for that read-out and setting: the value for `O=C(NCc1ccccc1)c1cc(C(=O)Nc2ccccc2)c(Cl)cc1F` [Example 28, N^1-benzyl-4-chloro-6-fluoro-N^3-phenylbenzene-1,3-dicarboxamide] was 31.2%.
In the assay with UMUC9 cells, `CC(C)(O)c1ccc(NC(=O)c2cc(C(=O)NCc3ccc(F)c(F)c3)c(F)cc2Cl)cc1` [Example 51, 4-chloro-N^1-[(3,4-difluorophenyl)methyl]-6-fluoro-N^3-[4-(2-hydroxypropan-2-yl)phenyl]benzene-1,3-dicarboxamide] gave an Emax of 69.2% and an IC50 of 38.5 nM.
As to `Cc1cc(N2CCOCC2)cnc1NC(=O)c1cc(C(=O)NCc2ccc(F)c(F)c2)c(F)cc1Cl` [Example 41, 4-chloro-N^1-(3,4-difluorobenzyl)-6-fluoro-N^3-(3-methyl-5-morpholinopyridin-2-yl)isophthalamide], the Emax in the assay with UMUC9 cells came to 98.9%.
On to `O=C(NCc1ccccc1)c1cc(Cl)c(Cl)c(C(=O)Nc2ccccc2)c1` [Example 16, N1-benzyl-4,5-dichloro-N^3-phenylbenzene-1,3-dicarboxamide], for which, in the assay on UMUC9 cells, the Emax was determined as 24.8% and the IC50 turned out to be 24.7 nM.
